Laboratory results taken from patent US8791100B2 (Novartis AG, priority 2010, dated 2014).

molecular target: human S1P1 receptors (Homo sapiens (Human), UniProt P21453); assay: Human S1P1 Receptor Calcium FLIPR Antagonist Assay (HeLa Gα16 S1P1); format: cell-based; conditions: relative antagonism vs probing agonist GNF-AC-1 at EC80, HeLa-S1P1/Gα16 cells
Text: Human S1P1 Receptor Calcium FLIPR Antagonist Assay
The assay measures intracellular changes of Ca^2+ mediated by the synthetic probing agonist 3-{[2-(2-Trifluoromethyl-biphenyl-4-yl)-benzo[b]thiophen-5-ylmethyl]-amino}-propionic acid (GNF-AC-1) in the HeLa-S1P1/Gα16 cell clone 1: HeLa (human cervix carcinoma, ATCC CCL2) cells stably expressing N-terminally myc-tagged human S1P1 receptors (GenBank™ accession No. NM_001400; UNIPROT P21453) and promiscuous Gα16 protein (GenBank™ accession number M63904, Swissprot P30679) are cultured at 37° C., 5% CO2, and 95% relative humidity. The cells are plated in 384 well black plates (10′000 cells per well). After 24 hours the cells are loaded with Fluo-4-AM (1.6 μM in HBSS and 2.5 mM probenicid) for 1 hour at 37° C. After washing, the cells are transferred to the FLIPR. The test compounds are added at different concentrations (≦100 μM) in HBSS in the presence of 0.1% BSA and changes in fluorescence are recorded (indication of agonism). The probing agonist is added 20-30 minutes afterwards to the wells at a concentration giving 80% of the maximal activity (EC80). After each addition, time points are collected as follows: 20 time points (2 seconds) before the addition of the agonist (Fmin) and 60 time points (1 or 2 seconds) after the addition of the probing agonist. This allows the determination of the maximal fluorescence (Fmax). The ratio (Fmax−Fmin)/Fmin is plotted against the log of the concentration of the test compounds and the IC50 (relative antagonism) is calculated using the XLfit-4 software. […] A concentration-response curve of the probing agonist is determined on each plate in parallel.

Sequence of human S1P1 receptors (P21453 whole entry): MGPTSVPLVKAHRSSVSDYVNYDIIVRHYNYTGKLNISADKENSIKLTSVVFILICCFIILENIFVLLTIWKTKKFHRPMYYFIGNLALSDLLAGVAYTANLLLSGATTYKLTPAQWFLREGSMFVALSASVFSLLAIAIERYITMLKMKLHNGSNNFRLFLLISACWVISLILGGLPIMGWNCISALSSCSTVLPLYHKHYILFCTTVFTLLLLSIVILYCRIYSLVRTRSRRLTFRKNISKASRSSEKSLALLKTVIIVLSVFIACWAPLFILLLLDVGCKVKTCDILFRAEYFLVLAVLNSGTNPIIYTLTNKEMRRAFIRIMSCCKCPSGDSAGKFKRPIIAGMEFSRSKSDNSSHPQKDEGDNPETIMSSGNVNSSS

Row | SMILES | IC50
1 | CC[C@@H](Nc1cc(CN2CC[C@@H](C(=O)O)C2)ccc1F)c1ccc(Cl)c(C)c1 [Example 27, (R)-1-{3-[(R)-1-(4-Chloro-3-methyl-phenyl)-propylamino]-4-fluoro-benzyl}-pyrrolidine-3-carboxylic acid] | 10.6 nM
2 | CC[C@@H](Nc1cccc(CN2CC(C)(C(=O)O)C2)c1)c1ccc(Cl)c(C)c1 [Example 8, 1-{3-[(R)-1-(4-Chloro-3-methyl-phenyl)-propylamino]-benzyl}-3-methyl-azetidine-3-carboxylic acid] | 1.5 nM
3 | CC[C@@H](Nc1cc(CN2CC(C(=O)O)C2)ccn1)c1ccc(Cl)c(C)c1 [Example 75, 1-{2-[(R)-1-(4-Chloro-3-methyl-phenyl)-propylamino]-pyridin-4-ylmethyl}-azetidine-3-carboxylic acid] | 2.8 nM
4 | CC[C@@H](Nc1cccc(CN2CC(C(=O)O)C2)c1)c1ccc(Cl)c(C)c1 [Example 3, 1-{3-[(R)-1-(4-Chloro-3-methyl-phenyl)-propylamino]-benzyl}-azetidine-3-carboxylic acid] | 0.9 nM
5 | CC[C@@H](Nc1cc(CN2CCC(C)(C(=O)O)C2)c(Cl)cn1)c1ccc(Cl)c(C)c1 (stereo partly drawn) [Example 57, 1-{5-Chloro-2-[(R)-1-(4-chloro-3-methyl-phenyl)-propylamino]-pyridin-4-ylmethyl}-3-methyl-pyrrolidine-3-carboxylic acid] | 2.4 nM
6 | CC[C@@H](Nc1cc(CN2CCC(C)(C(=O)O)C2)c(Cl)cn1)c1ccc(Cl)c(C)c1 (single isomer, unassigned) [Example 87] | 0.7 nM
7 | Cc1cc([C@H](Nc2cccc(CN3CC(C(=O)O)C3)c2)C2CCC2)ccc1Cl [Example 76, 1-(3-{[(R)-(4-Chloro-3-methyl-phenyl)-cyclobutyl-methyl]-amino}-benzyl)-azetidine-3-carboxylic acid] | 5.7 nM
8 | CC[C@@H](Nc1ccc(C)c(CN2CC(C(=O)O)C2)c1)c1ccc(Cl)c(C)c1 [Example 22, 1-{5-[(R)-1-(4-Chloro-3-methyl-phenyl)-propylamino]-2-methyl-benzyl}-azetidine-3-carboxylic acid] | 0.8 nM
9 | CC[C@@H](Nc1cccc(C(C)N2CC(C(=O)O)C2)c1)c1ccc(Cl)c(C)c1 (stereo partly drawn) [Example 6, 1-(1-{3-[(R)-1-(4-Chloro-3-methyl-phenyl)-propylamino]-phenyl}-ethyl)-azetidine-3-carboxylic acid] | 0.5 nM
10 | Cc1ccc(N[C@H](C)c2cc(C)c(Cl)c(C)c2)cc1CN1CC[C@@H](C(=O)O)C1 [Example 44, (R)-1-{5-[(R)-1-(4-Chloro-3,5-dimethyl-phenyl)-ethylamino]-2-methyl-benzyl}-pyrrolidine-3-carboxylic acid] | 6.7 nM
11 | CC[C@@H](Nc1ccc(Cl)c(CN2CC[C@@H](C(=O)O)C2)c1)c1ccc(Cl)c(C)c1 [Example 38, (R)-1-{2-Chloro-5-[(R)-1-(4-chloro-3-methyl-phenyl)-propylamino]-benzyl}-pyrrolidine-3-carboxylic acid] | 0.8 nM
12 | Cc1cc([C@H](Nc2ccc(Cl)c(CN3CCC(C(=O)O)C3)c2)C(F)(F)F)ccc1Cl (stereo partly drawn) [Example 72, 1-{2-Chloro-5-[(S)-1-(4-chloro-3-methyl-phenyl)-2,2,2-trifluoro-ethylamino]-benzyl}-pyrrolidine-3-carboxylic acid] | 1.1 nM
13 | CCC(Nc1cccc(CN2CC[C@@H](C(=O)O)C2)c1C)c1ccc(Cl)c(C)c1 (stereo partly drawn) [Example 14, (R)-1-{3-[1-(4-Chloro-3-methyl-phenyl)-propylamino]-2-methyl-benzyl}-pyrrolidine-3-carboxylic acid] | 1.5 nM
14 | Cc1ccc(N[C@H](C)c2cc(C)c(Cl)c(C)c2)cc1CNCCC(=O)O [Example 47, 3-{5-[(R)-1-(4-Chloro-3,5-dimethyl-phenyl)-ethylamino]-2-methyl-benzylamino}-propionic acid] | 1.6 nM
15 | CC[C@@H](Nc1cccc(CN2CC[C@@H](C(=O)O)C2)c1)c1ccc(Cl)c(C)c1 [Example 11] | 4 nM
